Holding throughout (type): physicochemical
A short description of data set [1]: Particle size of jet milled ZGN-440. Conditions: for D10 / D50 / D90: after jet milling. Here is the method:
(§1) Jet milling was conducted with ZGN-440 having an initial D90 of 211.9 μm prior to jet milling.
(§2) For FPS5, jet milled ZGN-440 was recovered in greater than 90% yield. […] The particle size generated is suitable for use with a 29-gauge to 31-gauge needle.

A further data set is described as follows: Storage of Form C. The following applies: about three days of storage at either 5° C. or ambient temperature. The source says:
In other embodiments, Form C of 6-O-(4-dimethylaminoethoxy)cinnamoyl fumagillol, free base has an IR absorption spectrum having characteristic peaks at about at least one of: 831, 894, 1106, 1159, 1249, 1287, 1512, 1602, 1631, and 1707 cm^−1. In this context, the term “about” means that the cm^−1 values can vary, e.g. up to ±5 cm^−1. In certain embodiments, Form C of 6-O-(4-dimethylaminoethoxy)cinnamoyl fumagillol, free base is characterized by the IR absorption spectrum shown in FIG. 15 of U.S. Pat. No. 8,349,891, U.S. Pat. No. 8,735,447, and WO 2012/064838. […] Accordingly, in certain embodiments, the compositions described herein can include Form C and/or Form A derived from Form C.

Data set [2] in a line: Polymorphic form / crystallinity after suspension, jet milling or microfluidization (XRPD). Conditions: for crystallinity and polymorphic form after jet milling: XRPD. How it is done: The following processes may be used to prepare an appropriate particle size of ZGN-440 (i) microfluidization; (ii) jet milling; (iii) ball milling; and suspension homogenization.
as §1, §2

The next data set in a line: physchem. The source says:
In some embodiments, the crystalline form of Form A 6-O-(4-dimethylaminoethoxy) cinnamoyl fumagillol, free base has an IR absorption spectrum having at least one or more characteristic peaks at about 2971, 2938, 2817, 2762, 1163, 1103, 832 cm^−1. In this context, the term “about” means that the cm^−1 values can vary, e.g., up to ±5 cm^−1. In certain embodiments, the crystalline form of Form A 6-O-(4-dimethylaminoethoxy)cinnamoyl fumagillol has IR absorption spectrum shown in FIG. 5 of U.S. Pat. No. 8,349,891, U.S. Pat. No. 8,735,447, and WO 2012/064838. In some embodiments, the crystalline form (e.g., Form A) of Form A 6-O-(4-dimethylaminoethoxy)cinnamoyl fumagillol, free base is characterized by a melting point of about 83° C., for example, and characterized by a differential scanning calorimetry profile with an endotherm at about 83.1° C. […] The solubility of Form A in solvent (e.g., an aqueous solution that may include a buffer) with a pH greater or equal to about 8.0 may be less than about 0.2 mg/mL at ca. 20° C.

≈ marks a conversion by molar mass, not a printed value.

In data set [1], `CO[C@@H]1[C@H](OC(=O)/C=C/c2ccc(OCCN(C)C)cc2)CC[C@]2(CO2)[C@H]1[C@@]1(C)O[C@@H]1CC=C(C)C` [FPS/2] gave a D10 of 1.1 µm, a D50 of 3 µm and a D90 of 6.9 µm.

As for `CO[C@@H]1[C@H](OC(=O)/C=C/c2ccc(OCCN(C)C)cc2)CC[C@]2(CO2)[C@H]1[C@@]1(C)O[C@@H]1CC=C(C)C` [Form C, 6-O-(4-dimethylaminoethoxy) cinnamoyl fumagillol], in the data set “Storage of Form C”, the “conversion of crystalline form on storage” value is “converts or reverts to Form A”.

On to `CO[C@@H]1[C@H](OC(=O)/C=C/c2ccc(OCCN(C)C)cc2)CC[C@]2(CO2)[C@H]1[C@@]1(C)O[C@@H]1CC=C(C)C` [FPS/4], for which, in data set [1], the D10 amounted to 1.5 µm, the D50 came to 6.5 µm and the D90 was determined as 13.2 µm.

In data set [1], `CO[C@@H]1[C@H](OC(=O)/C=C/c2ccc(OCCN(C)C)cc2)CC[C@]2(CO2)[C@H]1[C@@]1(C)O[C@@H]1CC=C(C)C` [FPS/1] showed a D10 of 1.1 µm, a D50 of 2.4 µm and a D90 of 5.2 µm.

In data set [1], `CO[C@@H]1[C@H](OC(=O)/C=C/c2ccc(OCCN(C)C)cc2)CC[C@]2(CO2)[C@H]1[C@@]1(C)O[C@@H]1CC=C(C)C` [FPS/5] gave a D10 of 1.2 µm, a D50 of 6.1 µm and a D90 of 14.3 µm. Besides, the “crystallinity and polymorphic form after jet milling” value (“crystallinity and polymorphic form” below) in data set [2] was “crystalline and the desired polymorph”.

Broadly, the solubility is the dissolved amount per volume that the medium holds. Consider `CO[C@@H]1[C@H](OC(=O)/C=C/c2ccc(OCCN(C)C)cc2)CC[C@]2(CO2)[C@H]1[C@@]1(C)O[C@@H]1CC=C(C)C` [ZGN-440, 6-O-(4-dimethylaminoethoxy) cinnamoyl fumagillol], for which the solubility was about 25 mg/mL (≈ 50 mM) in the data set “physchem” (20 °C, organic solvent or mixture); under 0.2 mg/mL in the data set “physchem” (20 °C, pH 8, aqueous buffer); about 102 mg/mL (≈ 204 mM) in the data set “physchem” (50 °C, organic solvent or mixture). Further, the “initial D90” value in data set [1] (prior to jet milling) amounted to 211.9 μm. Moreover, the “crystallinity and polymorphic form” value in data set [2] was “retains its crystallinity and its polymorphic structure”. In addition, the polymorphic form entry in data set [2] (suspended in different aqueous diluents (e.g., for extended times) or jet milled or microfluidized) is on record as “no change in the polymorphic form”.

In data set [1], `CO[C@@H]1[C@H](OC(=O)/C=C/c2ccc(OCCN(C)C)cc2)CC[C@]2(CO2)[C@H]1[C@@]1(C)O[C@@H]1CC=C(C)C` [NAT] came in with a D10 of 1.7 µm, a D50 of 9.4 µm and a D90 of 25.1 µm. For the same compound, the “crystallinity and polymorphic form” value in data set [2] was “retained its crystallinity and polymorphic form”.

In data set [1], `CO[C@@H]1[C@H](OC(=O)/C=C/c2ccc(OCCN(C)C)cc2)CC[C@]2(CO2)[C@H]1[C@@]1(C)O[C@@H]1CC=C(C)C` [FPS/3] registered a D10 of 1.2 µm, a D50 of 3.9 µm and a D90 of 9.5 µm.

These data come from patent US20170273932A1, “LYOPHILIZED COMPOSITIONS CONTAINING A METAP-2 INHIBITOR” (Zafgen, Inc., priority 2014, published 2017).
